# Source: PMC10339703 (Clinical and Translational Science, 2023)
# Where two headings read alike, the source gives them in different places.
# Key:
# [1] = assay type: in vivo, human; conditions: for CL/F / Fe0‐12h (fraction excreted in urine) / Accumulation ratio (based on AUCτ): geometric mean (geometric CV%); for Tmax: human, plasma, oral, range
# Solubility in water = assay type: physicochemical
# [2] = test system: CYP2C19, CYP2D6, CYP3A4, UGT2B4, and UGT2B7; test: Inhibition of CYP and UGT enzymes; assay type: in vitro ADME; conditions: at therapeutic concentration ranges; data on file
# [3] = MAD day 1, single 100 mg tablet
# [4] = MAD day 1, single 200 mg tablet
# [5] = MAD day 14, 50 mg tablet b.i.d.
# [6] = MAD day 14, 100 mg tablet b.i.d.
# [7] = MAD day 14, 200 mg tablet b.i.d.
smiles,measurement,setting,value
O[C@H]1CCCN[C@@H]1CCCn1cnc2c(Cl)c(Cl)ccc21 [Bersiporocin],"dose adjusted plasma exposure, CYP2D6 poor metabolizer compared to the median value in other phenotypes",[1]; MAD,six‐ to nine‐fold higher
same,CL/F,"[1]; MAD day 1, single 25 mg tablet",175.57 (70.55) L/h
same,Fe0‐12h (fraction excreted in urine),"[1]; MAD day 1, single 25 mg tablet",6.23 (44.75) %
same,CL/F,"[1]; MAD day 1, single 50 mg tablet",292.89 (26.44) L/h
same,Fe0‐12h (fraction excreted in urine),"[1]; MAD day 1, single 50 mg tablet",6.09 (95.30) %
same,CL/F,[1]; [3],261.98 (49.54) L/h
same,Fe0‐12h (fraction excreted in urine),[1]; [3],8.20 (27.21) %
same,CL/F,[1]; [4],266.78 (18.62) L/h
same,Fe0‐12h (fraction excreted in urine),[1]; [4],8.44 (50.39) %
same,Accumulation ratio (based on AUCτ),"[1]; MAD day 14, 25 mg tablet b.i.d.",1.94 (26.34)
same,Accumulation ratio (based on AUCτ),[1]; [5],2.33 (31.42)
same,Fe0‐12h (fraction excreted in urine),[1]; [5],6.09 (95.30) %
same,Accumulation ratio (based on AUCτ),[1]; [6],1.88 (35.07)
same,Fe0‐12h (fraction excreted in urine),[1]; [6],8.20 (27.21) %
same,Accumulation ratio (based on AUCτ),[1]; [7],3.75 (36.01)
same,Fe0‐12h (fraction excreted in urine),[1]; [7],8.44 (50.39) %
same,increase of AUC,"[1]; MAD, 100 to 200 mg dose group",more than four‐folds
same,dose dependence of plasma concentration,"[1]; MAD, enteric coated tablet, after single and multiple doses",dose‐proportional manner
same,time to steady‐state of plasma concentration,"[1]; MAD, enteric coated tablet, first Helmert contrast with p > 0.05",2 days
same,Tmax,"[1]; median T max after a single dose, MAD, single dose",2.5 to 6 h
same,Tmax,"[1]; median T max,ss, MAD, multiple doses",2 to 6 h
same,solubility,Solubility in water,19.6 mg/mL
same,inhibition of CYP and UGT enzymes,[2],did not inhibit
